Laboratory results taken from ChEMBL document CHEMBL4602606, “Differentiating the Pharmacodynamics and Toxicology of Macrolide and Ketolide Antibiotics” (J Med Chem, 2020).
In brackets after ≈: the same amount, converted by molar mass.

What was measured:
[1] = Maximum serum concentration in human at 500 mg, po measured within 2 hrs; assay type: ADME, organism-based; set-up: dose 500 mg, route oral; details: in vivo
[2] = Terminal half life in human; assay type: ADME; details: read-out: beta t1/2
Haemophilus influenzae = test: Antibacterial activity against Haemophilus influenzae; assay type: functional
[3] = Protein binding in plasma (unknown origin); assay type: ADME, cell-free; details: read-out: PPB
[4] = Maximum serum concentration in human at 500 mg, po; assay type: ADME; set-up: dose 500 mg, route oral
[5] = Inhibition of human nAChR expressed in human TE671 cells assessed as reduction in nicotine-induced current response by whole-cell patch-clamp method; assay type: cell-based; details: TE-671
[6] = biological target: Neuronal acetylcholine receptor; alpha3/beta4 (Homo sapiens, UniProt P30926+P32297); test: Inhibition of human alpha3beta4 nAChR assessed as […] in acetylcholine-induced normalized current at 2 uM (reference value: 78.5 +/- 10 uM); assay type: protein-complex assay
Streptococcus pneumoniae [7] = test: Antibacterial activity against erythromycin-susceptible Streptococcus pneumoniae; assay type: functional
Streptococcus pneumoniae [8] = test: Antibacterial activity against erythromycin-resistant Streptococcus pneumoniae; assay type: functional

Sequence of Neuronal acetylcholine receptor; alpha3/beta4 (P30926 whole entry): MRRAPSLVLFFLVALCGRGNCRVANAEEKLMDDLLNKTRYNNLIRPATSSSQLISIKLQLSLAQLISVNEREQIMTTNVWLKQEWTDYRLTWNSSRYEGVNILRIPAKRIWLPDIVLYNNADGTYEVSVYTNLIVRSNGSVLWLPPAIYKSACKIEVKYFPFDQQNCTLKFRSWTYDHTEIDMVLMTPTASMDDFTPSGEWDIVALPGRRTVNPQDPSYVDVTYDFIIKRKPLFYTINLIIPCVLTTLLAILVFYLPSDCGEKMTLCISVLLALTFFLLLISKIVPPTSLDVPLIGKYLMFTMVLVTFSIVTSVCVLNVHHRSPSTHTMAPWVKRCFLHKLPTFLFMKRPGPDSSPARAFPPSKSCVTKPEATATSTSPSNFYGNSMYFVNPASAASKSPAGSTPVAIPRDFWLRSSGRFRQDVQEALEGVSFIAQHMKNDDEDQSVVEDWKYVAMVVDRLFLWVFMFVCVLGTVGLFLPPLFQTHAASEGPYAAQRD
Sequence of Neuronal acetylcholine receptor; alpha3/beta4 (P32297 whole entry): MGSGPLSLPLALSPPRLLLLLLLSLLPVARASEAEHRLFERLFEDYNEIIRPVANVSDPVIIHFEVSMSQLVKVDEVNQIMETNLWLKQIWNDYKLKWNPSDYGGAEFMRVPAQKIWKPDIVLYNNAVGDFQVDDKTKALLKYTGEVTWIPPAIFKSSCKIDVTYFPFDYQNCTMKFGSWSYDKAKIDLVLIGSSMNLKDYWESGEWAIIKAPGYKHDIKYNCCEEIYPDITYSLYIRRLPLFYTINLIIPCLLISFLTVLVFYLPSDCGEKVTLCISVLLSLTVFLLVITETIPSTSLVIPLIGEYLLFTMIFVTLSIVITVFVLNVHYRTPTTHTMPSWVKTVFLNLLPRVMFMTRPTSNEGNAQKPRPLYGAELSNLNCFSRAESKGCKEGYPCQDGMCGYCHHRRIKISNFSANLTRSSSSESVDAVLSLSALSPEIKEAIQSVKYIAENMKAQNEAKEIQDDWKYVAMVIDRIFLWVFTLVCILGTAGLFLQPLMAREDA

Which results are given for `CC[C@H]1OC(=O)[C@H](C)[C@@H](O[C@H]2C[C@@](C)(OC)[C@@H](O)[C@H](C)O2)[C@H](C)[C@@H](O[C@@H]2O[C@H](C)C[C@H](N(C)C)[C@H]2O)[C@](C)(O)C[C@@H](C)CN(C)[C@H](C)[C@@H](O)[C@]1(C)O` [AZITHROMYCIN]?
Cmax [1]: 350 to 450 µg/mL; half-life [2]: 48 to 96 h; MIC (Haemophilus influenzae): 0.25 mg/L (≈ 0.334 µM)

Which fraction unbound [3] does the source give for `CC[C@H]1OC(=O)[C@H](C)C(=O)[C@H](C)[C@@H](O[C@@H]2O[C@H](C)C[C@H](N(C)C)[C@H]2O)[C@](C)(OCC=Cc2cnc3ccccc3c2)C[C@@H](C)C(=O)[C@H](C)[C@H]2NC(=O)O[C@@]21C` [CETHROMYCIN] here?
The fraction unbound was under 0.04.

With `CC[C@H]1OC(=O)[C@H](C)[C@@H](O[C@H]2C[C@@](C)(OC)[C@@H](O)[C@H](C)O2)[C@H](C)[C@@H](O[C@@H]2O[C@H](C)C[C@H](N(C)C)[C@H]2O)[C@](C)(OC)C[C@@H](C)C(=O)[C@H](C)[C@@H](O)[C@]1(C)O` [CLARITHROMYCIN] as the molecule, how does the Cmax [4] read?
Its Cmax is 2.5 µg/mL.

Which MIC (Haemophilus influenzae) does the source give for `CC[C@H]1OC(=O)[C@H](C)[C@@H](O[C@H]2C[C@@](C)(OC)[C@@H](O)[C@H](C)O2)[C@H](C)[C@@H](O[C@@H]2O[C@H](C)C[C@H](N(C)C)[C@H]2O)[C@](C)(O)C[C@@H](C)C(=O)[C@H](C)[C@@H](O)[C@]1(C)O` [ERYTHROMYCIN] here?
Its MIC is 0.5 to 2 mg/L (≈ 0.681 to 2.73 µM).

With `CC[C@H]1OC(=O)[C@H](C)C(=O)[C@H](C)[C@@H](O[C@@H]2O[C@H](C)C[C@H](N(C)C)[C@H]2O)[C@](C)(OC)C[C@@H](C)C(=O)[C@H](C)[C@H]2N(CCCCn3cnc(-c4cccnc4)c3)C(=O)O[C@]12C` [TELITHROMYCIN] as the molecule, how does the IC50 [5] read?
The IC50 was 3.5 µM.

And the EC50 [6]?
Its EC50 is 132 µM.

And the MIC (Streptococcus pneumoniae [7])?
Its MIC is 0.06 mg/L (≈ 0.0739 µM).

What about the MIC (Streptococcus pneumoniae [8]) of the same molecule?
The MIC was 0.25 mg/L (≈ 0.308 µM).
